Test results published in patent EP3072956A1, “Selective culture medium for polymyxin-resistant, gram-negative bacteria” (priority 2015, dated 2016).

Experiments:
Experiment in all cases: MIC determination by broth microdilution (MHB-CA, CLSI)
Type in all cases: cell-based
[1] = tested on: K. oxytoca; conditions: strain C24
Protocol: (§1) Determination of MIC values were performed by broth microdilution in Cation-Adjusted Mueller-Hinton broth (MHB-CA) according to the CLSI guidelines (Clinical and Laboratory Standards Institute). Polymyxin B and colistin (Sigma-Aldrich, Saint-Louis) were tested with or without Tween 80 over a range dilution from 0.12 to 128 µg/ml. The surfactant Tween 80, at a final concentration of 0.002%, prevents the binding of polymyxins to multi-array plastic panel. Actually, the use of Tween for determination of MIC of polymyxins is still debatable. MHB-CA broth and 5.10^5 CFU/ml of each tested strain were distributed in each well. Following the EUCAST breakpoints, strains were characterized as susceptible or resistant to polymyxins.

[2] = tested on: E. coli
Protocol: as §1

[3] = tested on: C. freundii
Protocol: as §1

[4] = tested on: K. pneumoniae
Protocol: as §1

[5] = tested on: S. marcescens; conditions: strain Smar
Protocol: as §1

[6] = tested on: M. morganii; conditions: strain Mmor
Protocol: as §1

[7] = tested on: P. vulgaris; conditions: strain Pvul
Protocol: as §1

[8] = tested on: B. cepacia; conditions: strain Bcep
Protocol: as §1

[9] = tested on: H. alvei; conditions: strain ER
Protocol: as §1

[10] = tested on: E. aerogenes; conditions: strain 36F8
Protocol: as §1

[11] = tested on: A. baumannii
Protocol: as §1

[12] = tested on: P. aeruginosa
Protocol: as §1

[13] = tested on: S. maltophilia
Protocol: as §1

Measured: MIC

polymyxin B
16 µg/mL: [2]; strain 27563, Without Tween80 | [4]; strain C3, With Tween80 | [9]; With Tween80
0.12 µg/mL: [2]; strain 36A6, With Tween80 | [2]; strain 36A6, Without Tween80 | [2]; strain 36D7, With Tween80 | [2]; strain 36D7, Without Tween80 | [2]; strain 38D6, With Tween80 | [2]; strain 38D6, Without Tween80 | [2]; strain ATCC 25922, With Tween80 | [2]; strain C140, With Tween80 | [2]; strain Eco OmpC-OmpF-, With Tween80 | [4]; strain 36A5, With Tween80 | [4]; strain 36A5, Without Tween80 | [4]; strain 38B7, Without Tween80 | [4]; strain C115, With Tween80 | [4]; strain Kp OmpK3 5-OmpK3 6-, With Tween80 | [10]; With Tween80 | [10]; Without Tween80 | [11]; strain C105, With Tween80 | [12]; strain ATCC 27853, With Tween80
4 µg/mL: [2]; strain 27852, With Tween80 | [2]; strain 27852, Without Tween80 | [2]; strain 30742, With Tween80 | [2]; strain 30742, Without Tween80
128 µg/mL: [4]; strain 75b, With Tween80 | [4]; strain 75b, Without Tween80 | [4]; strain BICb, With Tween80 | [4]; strain BICb, Without Tween80 | [4]; strain C1, Without Tween80 | [4]; strain C11, Without Tween80 | [4]; strain C12, Without Tween80 | [4]; strain C21, With Tween80 | [4]; strain C21, Without Tween80 | [4]; strain C26, With Tween80 | [4]; strain C26, Without Tween80 | [11]; strain Aba6, With Tween80 | [11]; strain Aba6, Without Tween80
2 µg/mL: [2]; strain 28509, With Tween80 | [2]; strain 28509, Without Tween80
0.125 µg/mL: [2]; strain Eco OmpC-OmpF-, Without Tween80 | [4]; strain Kp OmpK3 5-OmpK3 6-, Without Tween80
1 µg/mL: [12]; strain 38J8, Without Tween80 | [12]; strain C111, Without Tween80 | [12]; strain C131, Without Tween80 | [12]; strain C133, Without Tween80
>128 µg/mL: [4]; strain C7, With Tween80 | [4]; strain C7, Without Tween80 | [4]; strain C27, With Tween80 | [4]; strain C27, Without Tween80 | [5]; With Tween80 | [5]; Without Tween80 | [6]; With Tween80 | [6]; Without Tween80 | [7]; With Tween80 | [7]; Without Tween80 | [8]; With Tween80 | [8]; Without Tween80 | [13]; strain Sm2, With Tween80 | [13]; strain Sm2, Without Tween80
32 µg/mL: [4]; strain 18J1, With Tween80 | [4]; strain 18J1, Without Tween80 | [4]; strain 1118, With Tween80 | [4]; strain 1118, Without Tween80 | [4]; strain 1515, With Tween80 | [4]; strain 1515, Without Tween80 | [4]; strain C3, Without Tween80 | [4]; strain C16, Without Tween80 | [4]; strain C25, With Tween80 | [4]; strain T4, With Tween80 | [4]; strain T4, Without Tween80 | [4]; strain T5, With Tween80 | [4]; strain T5, Without Tween80 | [13]; strain SmA51, With Tween80 | [13]; strain SmA51, Without Tween80
0.5 µg/mL: [3]; strain 38B2, With Tween80 | [3]; strain 38B2, Without Tween80 | [3]; strain C136, Without Tween80 | [4]; strain 36A7, With Tween80 | [4]; strain 36A7, Without Tween80 | [4]; strain 38B7, With Tween80 | [4]; strain C115, Without Tween80 | [4]; strain C130, With Tween80 | [4]; strain C132, With Tween80 | [11]; strain 38B9, Without Tween80 | [11]; strain C105, Without Tween80 | [12]; strain ATCC 27853, Without Tween80 | [12]; strain C133, With Tween80
64 µg/mL: [1]; With Tween80 | [1]; Without Tween80 | [4]; strain 12E2, With Tween80 | [4]; strain 12E2, Without Tween80 | [4]; strain 13G2, With Tween80 | [4]; strain 13G2, Without Tween80 | [4]; strain C1, With Tween80 | [4]; strain C11, With Tween80 | [4]; strain C12, With Tween80 | [4]; strain C16, With Tween80 | [4]; strain C22, With Tween80 | [4]; strain C22, Without Tween80 | [4]; strain C25, Without Tween80 | [4]; strain Sa, With Tween80 | [4]; strain Sa, Without Tween80 | [4]; strain T1b, With Tween80 | [4]; strain T1b, Without Tween80
8 µg/mL: [2]; strain 27563, With Tween80 | [2]; strain 27837, With Tween80 | [2]; strain 27837, Without Tween80 | [2]; strain 27850, With Tween80 | [2]; strain 27850, Without Tween80 | [4]; strain AF1b, With Tween80 | [4]; strain AF1b, Without Tween80 | [9]; Without Tween80
0.25 µg/mL: [2]; strain ATCC 25922, Without Tween80 | [2]; strain C140, Without Tween80 | [3]; strain C136, With Tween80 | [4]; strain 36A4, With Tween80 | [4]; strain 36A4, Without Tween80 | [4]; strain C112, With Tween80 | [4]; strain C112, Without Tween80 | [4]; strain C130, Without Tween80 | [4]; strain C132, Without Tween80 | [11]; strain 38B9, With Tween80 | [12]; strain 38J8, With Tween80 | [12]; strain C111, With Tween80 | [12]; strain C131, With Tween80
